Counter-ions that a name gives are not always drawn.
biological target: T1, recombinant full-length USP7 (Homo sapiens, UniProt Q93009); assay: USP7-mediated ubiquitin-rhodamine cleavage assay; assay type: biochemical; details: recombinant full-length USP7 62 pM; ubiquitin-rhodamine 100 nM; 30-minute incubation with compound, 1 hour reaction at room temperature; read-out: Potency: USP7 IC50
T1 construct: A 25 μl reaction volume containing recombinant full-length USP7 (62 pM)
In short: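 Rhodamine fluorescence read-out after acetic acid stop; IC50 by 4-parameter nonlinear regression. Enzyme at 62 pM, substrate ubiquitin-rhodamine 100 nM final, 1 h at room temperature in the dark, after 30 min compound preincubation. Buffer: HEPES pH 7.3, NaCl, TCEP, BSA; 1% DMSO.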

T1 sequence (Q93009 whole entry): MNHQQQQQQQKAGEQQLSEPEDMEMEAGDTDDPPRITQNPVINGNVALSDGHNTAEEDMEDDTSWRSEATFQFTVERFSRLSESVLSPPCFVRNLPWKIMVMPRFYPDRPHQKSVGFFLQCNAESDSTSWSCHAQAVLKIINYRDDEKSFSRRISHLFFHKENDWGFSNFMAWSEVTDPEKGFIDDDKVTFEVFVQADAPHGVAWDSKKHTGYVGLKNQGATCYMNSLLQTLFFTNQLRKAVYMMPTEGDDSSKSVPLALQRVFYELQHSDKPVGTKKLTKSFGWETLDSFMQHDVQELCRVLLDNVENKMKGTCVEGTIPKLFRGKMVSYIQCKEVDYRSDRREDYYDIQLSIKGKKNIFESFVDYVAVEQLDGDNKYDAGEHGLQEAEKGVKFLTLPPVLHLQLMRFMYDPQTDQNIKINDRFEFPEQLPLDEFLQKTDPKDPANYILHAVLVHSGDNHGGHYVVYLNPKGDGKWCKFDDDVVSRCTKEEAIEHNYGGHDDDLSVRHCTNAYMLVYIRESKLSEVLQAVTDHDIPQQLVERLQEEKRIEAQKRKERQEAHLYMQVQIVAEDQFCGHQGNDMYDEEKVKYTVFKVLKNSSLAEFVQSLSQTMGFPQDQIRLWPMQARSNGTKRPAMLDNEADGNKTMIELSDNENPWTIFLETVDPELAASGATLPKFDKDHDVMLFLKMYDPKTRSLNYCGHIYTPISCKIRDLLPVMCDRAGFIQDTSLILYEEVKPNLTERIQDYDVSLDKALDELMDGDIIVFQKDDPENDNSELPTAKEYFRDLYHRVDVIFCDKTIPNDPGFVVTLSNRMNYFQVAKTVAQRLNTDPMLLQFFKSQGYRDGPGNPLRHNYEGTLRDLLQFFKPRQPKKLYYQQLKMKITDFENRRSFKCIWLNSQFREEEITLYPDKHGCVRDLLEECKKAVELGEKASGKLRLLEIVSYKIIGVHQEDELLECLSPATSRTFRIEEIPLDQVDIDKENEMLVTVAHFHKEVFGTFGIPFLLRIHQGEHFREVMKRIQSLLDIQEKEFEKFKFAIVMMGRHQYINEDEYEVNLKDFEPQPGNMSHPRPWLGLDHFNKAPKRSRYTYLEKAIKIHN

| IC50 | Compound |
| --- | --- |
| 1 to 10 µM | Cc1cc(Cl)cc(-c2ncnc3cc(CN4C(=O)COC4=O)sc23)c1OC1CCNCC1 [Example 225, 3-((4-(5-Chloro-3-methyl-2-(piperidin-4-yloxy)phenyl)thieno[3,2-d]pyrimidin-6-yl)methyl)oxazolidine-2,4-dione] |
| 10 to 30 µM | Cc1cc(Cl)cc(-c2ccnc3cc(CO)sc23)c1O[C@@H]1CC[C@H](N)C1 [Example 89, (7-(2-(((1R,3S)-3-Aminocyclopentyl)oxy)-5-chloro-3-methylphenyl)thieno[3,2-b]pyridin-2-yl)methanol] |
| < 1 µM | Cc1cc(Cl)cc(-c2ncnc3cc(CN4C(=O)C5C(C4=O)C5(C)C)sc23)c1O[C@@H]1CCNC[C@@H]1C (stereo partly drawn) [Example 365, 3-[[4-[5-chloro-3-methyl-2-[[(3S,4R)-3-methyl-4-piperidyl]oxy]phenyl]thieno[3,2-d]pyrimidin-6-yl]methyl]-6,6-dimethyl-3-azabicyclo[3.1.0]hexane-2,4-dione dihydrochloride] |
| < 1 µM | Cc1cc(Cl)cc(-c2ccnc3cc(CN4C(=O)CCN(C)C4=O)sc23)c1O[C@H]1CCCNC1 [Example 162, (S)-3-((7-(5-Chloro-3-methyl-2-(piperidin-3-yloxy)phenyl)thieno[3,2-b]pyridin-2-yl)methyl)-1-methyldihydropyrimidine-2,4(1H,3H)-dione] |
| 10 to 30 µM | Cc1cc(Cl)cc(-c2ccnc3cc(CO)sc23)c1OC[C@H]1CCCN1 [Example 58, (R)-(7-(5-Chloro-3-methyl-2-(pyrrolidin-2-ylmethoxy)phenyl)thieno[3,2-b]pyridin-2-yl)methanol] |
| < 1 µM | Cc1cc(Cl)cc(-c2ccnc3cc(CN4C(=O)CCC4=O)sc23)c1OCC1(C#N)CNC1 [Example 12, 3-((4-Chloro-2-(2-((2,5-dioxopyrrolidin-1-yl)methyl)thieno[3,2-b]pyridin-7-yl)-6-methylphenoxy)methyl)azetidine-3-carbonitrile] |
| < 1 µM | Cc1cc(Cl)cc(-c2ccnc3cc(Cn4c(=O)ccn(C)c4=O)sc23)c1OC1CCNCC1 [Example 195, 3-((7-(5-Chloro-3-methyl-2-(piperidin-4-yloxy)phenyl)thieno[3,2-b]pyridin-2-yl)methyl)-1-methylpyrimidine-2,4(1H,3H)-dione] |
| < 1 µM | Cc1cc(Cl)cc(-c2ccnc3cc(Cn4c(=O)ccn(C)c4=O)sc23)c1O[C@H]1CCCNC1 [Example 161, (S)-3-((7-(5-Chloro-3-methyl-2-(piperidin-3-yloxy)phenyl)thieno[3,2-b]pyridin-2-yl)methyl)-1-methylpyrimidine-2,4(1H,3H)-dione] |
| 10 to 30 µM | Cc1cc(Cl)cc(-c2ccnc3ccsc23)c1OC1CC2CNC1C2 (stereo not drawn) [Example 171, 7-(2-((2-Azabicyclo[2.2.1]heptan-6-yl)oxy)-5-chloro-3-methylphenyl)thieno[3,2-b]pyridine] |
| 1 to 10 µM | Cc1cc(C#N)cc(-c2ccnc3cc(CO)sc23)c1OCC1(C)CNC1 [Example 43, 3-(2-(Hydroxymethyl)thieno[3,2-b]pyridin-7-yl)-5-methyl-4-((3-methylazetidin-3-yl)methoxy)benzonitrile] |
| < 1 µM | Cc1cc(Cl)cc(-c2ccnc3cc(CN4C(=O)C5C(C4=O)C5(C)C)sc23)c1OC1CCNC1(C)C (stereo not drawn) [Example 368, 3-[[7-[5-chloro-2-(2,2-dimethylpyrrolidin-3-yl)oxy-3-methyl-phenyl]thieno[3,2-b]pyridin-2-yl]methyl]-6,6-dimethyl-3-azabicyclo[3.1.0]hexane-2,4-dione] |

| Compound | IC50 |
| --- | --- |
| Cc1cc(Cl)cc(-c2ccnc3cc(CN4C(=O)C5C(C4=O)C5(C)C)sc23)c1OC1CC(N)C1 (stereo not drawn) [Example 357, 3-[[7-[2-(3-aminocyclobutyoxy)-5-chloro-3-methyl-phenyl]thieno[3,2-b]pyridin-2-yl]methyl]-6,6-dimethyl-3-azabicyclo[3.1.0]hexane-2,4-dione; 2,2,2-trifluoroacetic acid] | < 1 µM |

same assay, conditions: recombinant full-length USP7 62 pM; ubiquitin-rhodamine 100 nM; 30-minute incubation, 1 hour reaction at room temperature; read-out: Potency (USP7 IC50)

| Compound | IC50 |
| --- | --- |
| Cc1cc(Cl)cc(-c2ccnc3cc(Cn4c(=O)ccn(CC(F)(F)F)c4=O)sc23)c1OC1CC(N2[C@@H]3CC[C@H]2COC3)C1 (stereo partly drawn) [Example 676, 3-[[7-[5-chloro-3-methyl-2-[3-[(1R,5S)-3-oxa-8-azabicyclo[3.2.1]octan-8-yl]cyclobutoxy]phenyl]thieno[3,2-b]pyridin-2-yl]methyl]-1-(2,2,2-trifluoroethyl)pyrimidine-2,4-dione] | < 1 µM |
| Cc1cc(Cl)cc(-c2ccnc3cc(Cn4c(=O)ccn(CC(F)(F)F)c4=O)sc23)c1OC1CC(N2CC(O)C2)C1 (stereo not drawn) [Example 700, 3-[[7-[5-chloro-2-[3-(3-hydroxyazetidin-1-yl)cyclobutoxy]-3-methyl-phenyl]thieno[3,2-b]pyridin-2-yl]methyl]-1-(2,2,2-trifluoroethyl)pyrimidine-2,4-dione; 2,2,2-trifluoroacetic acid] | < 1 µM |
| Cc1cc(Cl)cc(-c2ccnc3cc(Cn4c(=O)ccn(CC(F)(F)F)c4=O)sc23)c1OC1CC(N2CCC(O)C2)C1 (stereo not drawn) [Example 672, 3-[[7-[5-chloro-2-[3-(3-hydroxypyrrolidin-1-yl)cyclobutoxy]-3-methyl-phenyl]thieno[3,2-b]pyridin-2-yl]methyl]-1-(2,2,2-trifluoroethyl)pyrimidine-2,4-dione; 2,2,2-trifluoroacetic acid] | < 1 µM |
| Cc1cc(Cl)cc(-c2ccnc3cc(Cn4c(=O)ccn(CC(F)(F)F)c4=O)sc23)c1OC1CCC1 [Example 683, 3-[[7-[5-chloro-2-(cyclobutoxy)-3-methyl-phenyl]thieno[3,2-b]pyridin-2-yl]methyl]-1-(2,2,2-trifluoroethyl)pyrimidine-2,4-dione] | < 1 µM |

same assay, conditions: recombinant full-length USP7 62 pM; ubiquitin-rhodamine 100 nM; 30-minute pre-incubation, 1 hour reaction at room temperature; read-out: Potency (USP7 IC50)

| IC50 | Compound |
| --- | --- |
| < 1 µM | Cc1cc(Cl)cc(-c2ccnc3cc(Cn4c(=O)ccn(C)c4=O)sc23)c1OC1CNCC(F)(F)C1 (stereo not drawn) [Example 442, 3-[[7-[5-chloro-2-[(5,5-difluoro-3-piperidyl)oxy]-3-methyl-phenyl]thieno[3,2-b]pyridin-2-yl]methyl]-1-methyl-pyrimidine-2,4-dione; 2,2,2-trifluoroacetic acid] |
| < 1 µM | Cc1cc(Cl)cc(-c2ccnc3cc(Cn4c(=O)ccn(C(C)C)c4=O)sc23)c1O[C@H]1CCCNC1 [Example 447, 3-[[7-[5-chloro-3-methyl-2-[[(3S)-3-piperidyl]oxy]phenyl]thieno[3,2-b]pyridin-2-yl]methyl]-1-isopropyl-pyrimidine-2,4-dione] |
| < 1 µM | O=C1CCC(=O)N1Cc1cc2nccc(-c3cc(Cl)cc(C(F)F)c3OC3CCNCC3)c2s1 [Example 431, 1-[[7-[5-chloro-3-(difluoromethyl)-2-(4-piperidyloxy)phenyl]thieno[3,2-b]pyridin-2-yl]methyl]pyrrolidine-2,5-dione dihydrochloride] |
| < 1 µM | Cc1cc(Cl)cc(-c2ccnc3cc(CN4C(=O)CCC4=O)sc23)c1OC1CC[C@@H](C)NC1 (stereo partly drawn) [Example 463, 1-[[7-[5-chloro-3-methyl-2-[[(6R)-6-methyl-3-piperidyl]oxy]phenyl]thieno[3,2-b]pyridin-2-yl]methyl]pyrrolidine-2,5-dione; 2,2,2-trifluoroacetic acid] |
| < 1 µM | Cc1cc(Cl)cc(-c2ccnc3cc(Cn4c(=O)ccn(C)c4=O)sc23)c1O[C@@H]1CNC[C@@H](F)C1 [Example 496, 3-[[7-[5-chloro-2-[[(3S,5S)-5-fluoro-3-piperidyl]oxy]-3-methyl-phenyl]thieno[3,2-b]pyridin-2-yl]methyl]-1-methyl-pyrimidine-2,4-dione] |
| < 1 µM | Cc1cc(Cl)cc(-c2ccnc3cc(Cn4c(=O)ccn(C)c4=O)sc23)c1OC1CC2CNC1C2 (stereo not drawn) [Example 418] |
| < 1 µM | Cc1cc(Cl)cc(-c2ccnc3cc(Cn4c(=O)ccn(CC(F)(F)F)c4=O)sc23)c1O[C@@H]1CN[C@H](C(C)(C)O)C1 [Example 634, 3-[[7-[5-chlloro-2-[(3S,5S)-5-(1-hydroxy-1-methyl-ethyl)pyrrolidin-3-yl]oxy-3-methyl-phenyl]thieno[3,2-b]pyridin-2-yl]methyl]-1-(2,2,2-trifluoroethyl)pyrimidine-2,4-dione] |
| < 1 µM | COCCN1C[C@H](C)[C@H](Oc2c(C)cc(Cl)cc2-c2ccnc3cc(Cn4c(=O)ccn(CC(F)(F)F)c4=O)sc23)C1 [Example 645, 3-[[7-[5-chloro-2-[(3S,4S)-1-(2-methoxyethyl)-4-methyl-pyrrolidin-3-yl]oxy-3-methyl-phenyl]thieno[3,2-b]pyridin-2-yl]methyl]-1-(2,2,2-trifluoroethyl)pyrimidine-2,4-dione] |
| < 1 µM | COC[C@H]1C[C@H](Oc2c(C)cc(Cl)cc2-c2ccnc3cc(Cn4c(=O)ccn(CC(F)(F)F)c4=O)sc23)CN1 [Example 650, 3-[[7-[5-chloro-2-[(3S,5R)-5-(methoxymethyl)pyrrolidin-3-yl]oxy-3-methyl-phenyl]thieno[3,2-b]pyridin-2-yl]methyl]-1-(2,2,2-trifluoroethyl)pyrimidine-2,4-dione] |

| Compound | IC50 |
| --- | --- |
| Cc1cc(Cl)cc(-c2ccnc3cc(Cn4c(=O)ccn(C)c4=O)sc23)c1O[C@@H]1CC[C@@H](NCCO)C1 [Example 531, 3-[[7-[5-chloro-2-[(1R,3R)-3-(2-hydroxyethylamino)cyclopentoxy]-3-methyl-phenyl]thieno[3,2-b]pyridin-2-yl]methyl]-1-methyl-pyrimidine-2,4-dione; 2,2,2-trifluoroacetic acid] | < 1 µM |
| Cc1cc(Cl)cc(-c2ccnc3cc(Cn4c(=O)ccn(C)c4=O)sc23)c1O[C@H]1CC[C@H](N)C1 [Example 522, 3-[[7-[2-[(1S,3S)-3-aminocylcopentoxy]-5-chloro-3-methyl-phenyl]thieno[3,2-b]pyridin-2-yl]methyl]-1-methyl-pyrimidine-2,4-dione; 2,2,2-trifluoroacetic acid] | < 1 µM |

— patent US10722514B2 (FLX Bio, Inc., priority 2017, dated 2020)
